In patent US7491827B2, “Aryl sulfonamides useful as inhibitors of chemokine receptor activity” (Millennium Pharmaceuticals, Inc., priority 2003, dated 2009) one finds Ki data, which are given here for 24 compounds.

Molecules are shown by their SMILES.

The target in the first assay is T1, cloned human CCR8 receptor stably expressed in L1.2 cells (Homo sapiens, UniProt P51685).
T1 construct: expressed in transfected cells
T1 sequence (P51685 whole entry): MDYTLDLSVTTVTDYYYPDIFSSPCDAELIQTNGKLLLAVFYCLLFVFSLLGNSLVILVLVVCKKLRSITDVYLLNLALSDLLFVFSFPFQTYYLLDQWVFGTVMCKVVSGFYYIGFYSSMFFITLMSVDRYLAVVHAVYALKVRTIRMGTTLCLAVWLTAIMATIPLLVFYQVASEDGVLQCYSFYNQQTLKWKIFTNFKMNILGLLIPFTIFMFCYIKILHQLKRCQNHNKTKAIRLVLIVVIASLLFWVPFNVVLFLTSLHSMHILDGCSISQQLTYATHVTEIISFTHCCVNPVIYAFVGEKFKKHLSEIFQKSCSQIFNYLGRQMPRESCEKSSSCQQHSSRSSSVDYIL
Put plainly: whole cell binding screen: inhibition of biotinylated human I309 binding to CCR8 (FMAT 8100 HTS). The following applies: Ki of compounds to inhibit I-309 binding to CCR8, L1.2/hCCR8 cells, biotinylated human I-309, 10 point concentration response starting at 10 μM. The method, boiled down:
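Ten-point dilutions, top 10 μM final, were tested for displacing biotin-I309 from hCCR8-transfected L1.2 cells in HEPES-buffered HBSS with BSA and sodium azide, mixing 0.5 h before FMAT 8100 detection. Signals converted to percent inhibition against untreated wells and a 100 nM excess unlabeled I309 control.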
In the case of `O=C(Nc1ccc(S(=O)(=O)NC2CCCCC2)c2ccccc12)c1ccccc1` [Compound A-10, N-(4-Cyclohexylsulfamoyl-naphthalen-1-yl)-benzamide], the Ki (in general, the dissociation constant of the complex between target and ligand, obtained from inhibition or displacement) was under 1000 nM.

The assay is the same for the next values; noted with them: L1.2/hCCR8 cells, biotinylated human I-309, 10 point concentration response starting at 10 μM; read-out: Ki of compounds to inhibit I-309 binding to CCR8.
`CCCC(=O)N1CCC(NS(=O)(=O)c2cc3c(c(NC(=O)c4ccccc4Cl)c2)CCCC3)CC1` [Compound H-63, N-[3-(1-Butyryl-piperidin-4-ylsulfamoyl)-5,6,7,8-tetrahydro-naphthalen-1-yl]-2-chloro-benzamide]: the Ki was under 30000 nM. The same measure, in the same setting: the result for `COCC(=O)N1CCC(NS(=O)(=O)c2ccc(NC(=O)c3ccccc3C)c3c2CCCC3)CC1` [Compound E-18, N-{4-[1-(2-Methoxy-acetyl)-piperidin-4-ylsulfamoyl]-5,6,7,8-tetrahydro-naphthalen-1-yl}-2-methyl-benzamide] reads under 500 nM; that for `CCCC(=O)N1CC[C@H](NS(=O)(=O)c2ccc(N3C(=O)c4ccccc4C3=O)c3ccccc23)[C@H](C)C1` (racemic) [Compound C-75, (±)-(cis)-4-(1,3-Dioxo-1,3-dihydro-isoindol-2-yl)-naphthalene-1-sulfonic acid (1-butyryl-3-methyl-piperidin-4-yl)-amide], under 500 nM.

As for `CCCC(=O)N1CC[C@@H](NS(=O)(=O)c2ccc(NC(=O)c3ccccc3C)c3ccccc23)[C@@H](C)C1` (single isomer, unassigned) [Compound C-140, cis-N-[4-(1-butyryl-3-methyl-piperidin-4-ylsulfamoyl)-naphthalen-1-yl]-2-methyl-benzamiide], the Ki was under 500 nM. Still for that read-out and setting: the result for `Cc1ccccc1C(=O)Nc1ccc(S(=O)(=O)NC2CCN(C(=O)OC(C)C)CC2(C)C)c2ccccc12` (racemic) [Compound C-22, (±)-3,3-Dimethyl-4-[4-(2-methyl-benzoylamino)-naphthalene-1-sulfonylamino]-piperidine-1-carboxylic acid isopropyl ester] reads under 500 nM; that for `CCCC(=O)N1CC[C@H](NS(=O)(=O)c2ccc(NC(=O)c3ccccc3C)c3ccccc23)[C@H](CO)C1` (racemic) [Compound C-80, (±)-(cis)-N-[4-(1-Butryl-3-hydroxymethyl-piperidin-4-ylsulfamoyl)-naphthalen-1-yl]-2-methyl-benzamide], under 500 nM.

On to `CCCC(=O)N1CC[C@H](NS(=O)(=O)c2ccc(NC(=O)c3ccccc3C)c3ccccc23)[C@H](C)C1` (racemic) [Compound C-139, (±)-cis-N-[4-(1-Butryl-3-methyl-piperidin-4-ylsuffamoyl)-naphthalen-1-yl]-2-methyl-benzamide], for which the Ki is under 500 nM.

Turning to `Cc1ccccc1C(=O)Nc1ccc(S(=O)(=O)NCCCN2CCCC2=O)c2c1CCCC2` [Compound E-24, 2-Methyl-N-{4-[3-(2-oxo-pyrrolidin-1-yl)-propylsulfamoyl]-5,6,7,8-tetrahydro-naphthalen-1-yl}-benzamide], the Ki is under 1000 nM. On the same count and under the same terms, for `O=C(Nc1cc(S(=O)(=O)NC2CCCCC2)cc2c1CCCC2)c1ccccc1` [Compound H-54, N-(3-Cyclohexylsulfamoyl-5,6,7,8-tetrahydro-naphthalen-1-yI)-benzamide] the value was under 500 nM; for `Cc1ccccc1C(=O)Nc1ccc(S(=O)(=O)NC2CCN(c3nc4ccccc4o3)CC2)c2ccccc12` [Compound C-60, N-[4-(1-Benzooxazol-2-yl-piperidin-4-ylsulfamoyl)-naphthalen-1-yl]-2-methyl-benzamide], under 500 nM; for `Cc1ccccc1C(=O)Nc1ccc(S(=O)(=O)NC2CCCN(C(=O)N(C)C)C2)c2c1CCCC2` (racemic) [Compound E-30, (±)-3-[4-(2-Methyl-benzoylamino)-5,6,7,8-tetrahydro-naphthalene-1-sulfonylamino]-piperidine-1-carboxylic acid dimethylamide], under 500 nM. Take `CC[C@H]1CN(C(=O)[C@@H]2CCCN2)CC[C@@H]1NS(=O)(=O)c1ccc(NC(=O)c2ccccc2C)c2ccccc12` [Compound J-31, (3S, 4S)-N-{4-[3-Ethyl-1-(pyrrolidine-2-(S)-carbonyl)-piperidin-4-ylsulfamoyl]-naphthalen-1-yl}-2-methyl-benzamide]: the Ki is under 500 nM.

`CCNC(=O)N1CCC(NS(=O)(=O)c2ccc(C(=O)NC3CCCCC3)c3ccccc23)CC1` [Compound F-8, 4-(4-Cyclohexylcarbamoyl-naphthalene-1-sulfonylamino)-piperidine-1-carboxylic acid ethylamide]: the Ki is under 500 nM.

Turning to `CCOC(=O)N1CCC(NS(=O)(=O)c2ccc(CNCc3ccc(OC)cc3)c3ccccc23)CC1` [Compound G-10, 4-{4-[(4-Methoxy-benzylamino)-methyl]-naphthalene-1-sulfonylamino}-piperidine-1-carboxylic acid ethyl ester], the Ki is under 500 nM. Same read-out and setting: for `CCCC(=O)N1CC[C@H](NS(=O)(=O)c2ccc(NC(=O)c3cccnc3C)c3ccccc23)[C@H](C)C1` (racemic) [Compound D-3, (±)-(cis)-N-[4-(1-Butyryl-3-methyl-piperidin-4-ylsulfamoyl)-naphthalen-1-yl]-2-methyl-nicotinamide] the value was under 500 nM; for `CC[C@H]1CNCC[C@@H]1NS(=O)(=O)c1ccc(NC(=O)c2ccccc2C)c2ccccc12` [Compound J-47], under 500 nM.

As for `CC(=O)N1CC[C@H](NS(=O)(=O)c2ccc(NC(=O)c3ccccc3C)c3ccccc23)[C@H](C)C1` (racemic) [Compound C-30, (±)-cis-N-[4-(1-Acetl-3-methyl-piperidin-4-ylsulfamoyl)-naphthalen-1-yl]-2-methyl-benzamide], the Ki is under 500 nM. The same measure, in the same setting: for `CCc1ccc(NS(=O)(=O)c2ccc3cccc(NC(=O)c4ccccc4)c3c2)cc1` [Compound H-49, N-[7-(4-Ethyl-phenylsulfamoyl)-naphthalen-1-yl]-benzamide] the value was under 30000 nM; for `CCOC(=O)N1CC[C@H](NS(=O)(=O)c2ccc(NC(=O)c3ccccc3C)c3ccccc23)[C@H](CO)C1` (racemic) [Compound C-81, (±)-(cis)-3—Hydroxymethyl-4-[4-(2-methyl-benzoylamino)-naphthalene-1-sulfonylamino]-piperidine-1-carboxylic acid ethyl ester], under 500 nM. The same measure, in the same setting: the result for `CCOC(=O)N1CCC(NS(=O)(=O)c2cccc3c(NC(=O)c4ccc(C)s4)cccc23)CC1` [Compound H-16, 4-{5-[(5-Methyl-thiophene-2-carbonyl)-amino]-naphthalene-1-sulfonylamino}-piperidine-1-carboxylic acid ethyl ester] reads under 500 nM. On the same count and under the same terms, for `CCOC(=O)N1CCC(NS(=O)(=O)c2ccc(NC(=O)c3ccccc3C)c3c2CCCC3=O)CC1` [Compound J-43, 4-[4-(2-Methyl-benzoylamino)-5-oxo-5,6,7,8-tetrahydro-naphthalene-1-sulfonylamino]-piperidine-1-carboxylic acid ethyl ester] the value was under 1000 nM.

Turning to `CCCC(=O)N1CC[C@H](NS(=O)(=O)c2ccc(NC(=O)c3ccccc3C)c3ccccc23)[C@@H](C)C1` (racemic) [Compound C-19, (±)-trans-N-[4-(1-Butyryl-3-methyl-piperidin-4-ylsulfamoyl)-naphthalen-1-yl]-2-methyl-benzamide], the Ki is under 500 nM. Same read-out and setting: the result for `CC[C@@H]1CNCC[C@@H]1NS(=O)(=O)c1ccc(NC(=O)c2ccccc2C)c2ccccc12` [Compound J-45] reads under 500 nM.
